Experimental data reported in ChEMBL document CHEMBL3600348, “Synthesis of novel derivatives of oxindole, their urease inhibition and molecular docking studies” (Bioorg Med Chem Lett, 2015).

target: Urease (Canavalia ensiformis, UniProt P07374); assay: Inhibition of jack bean urease using urea as substrate assessed as ammonia production after 15 mins by Weatherburn assay
Sequence (P07374 whole entry): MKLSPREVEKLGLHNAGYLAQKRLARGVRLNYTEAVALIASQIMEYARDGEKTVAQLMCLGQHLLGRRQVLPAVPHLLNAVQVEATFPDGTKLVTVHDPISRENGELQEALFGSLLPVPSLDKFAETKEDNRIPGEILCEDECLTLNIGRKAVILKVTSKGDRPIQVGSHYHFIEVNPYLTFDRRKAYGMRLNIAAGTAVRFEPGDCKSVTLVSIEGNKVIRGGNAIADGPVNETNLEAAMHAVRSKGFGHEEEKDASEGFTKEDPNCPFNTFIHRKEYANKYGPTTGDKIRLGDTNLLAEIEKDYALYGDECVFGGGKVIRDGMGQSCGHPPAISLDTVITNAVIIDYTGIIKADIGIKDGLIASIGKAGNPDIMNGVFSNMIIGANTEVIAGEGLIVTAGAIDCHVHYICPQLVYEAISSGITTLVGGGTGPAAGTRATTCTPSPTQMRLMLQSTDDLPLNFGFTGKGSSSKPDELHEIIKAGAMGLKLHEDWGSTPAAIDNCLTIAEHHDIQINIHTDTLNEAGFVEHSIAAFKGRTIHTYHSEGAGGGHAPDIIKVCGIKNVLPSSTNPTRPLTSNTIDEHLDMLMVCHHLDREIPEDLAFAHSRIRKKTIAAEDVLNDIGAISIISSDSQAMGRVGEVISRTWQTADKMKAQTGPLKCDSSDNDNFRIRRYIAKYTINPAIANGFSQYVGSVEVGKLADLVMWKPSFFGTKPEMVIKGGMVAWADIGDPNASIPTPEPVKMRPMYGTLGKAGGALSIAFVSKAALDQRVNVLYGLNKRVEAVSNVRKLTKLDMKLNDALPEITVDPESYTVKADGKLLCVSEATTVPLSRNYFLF

| SMILES | IC50 [µM] |
| --- | --- |
| O=C1Nc2ccc(Cl)cc2/C1=C\c1ccc(C(=O)N/N=C/c2c(O)cc(O)cc2O)cc1 | 13 |
| C/C(=N\NC(=O)c1ccc(/C=C2/C(=O)Nc3ccc(Cl)cc32)cc1)c1c(O)cc(O)cc1O | 35.4 |
| O=C1Nc2ccc(Cl)cc2/C1=C\c1ccc(C(=O)N/N=C/c2ccc(O)cc2O)cc1 | 42.9 |
| O=C1Nc2ccc(Cl)cc2/C1=C\c1ccc(C(=O)N/N=C/c2cc(O)ccc2O)cc1 | 53.2 |
| O=C1Nc2ccc(Cl)cc2/C1=C\c1ccc(C(=O)N/N=C/c2cc(O)c(O)cc2O)cc1 | 126 |
| O=C1Nc2ccc(Cl)cc2/C1=C\c1ccc(C(=O)N/N=C/c2ccc(O)c(O)c2)cc1 | 70.8 |
| O=C1Nc2ccc(Cl)cc2/C1=C\c1ccc(C(=O)N/N=C/c2cc(O)cc(O)c2)cc1 | 19.2 |
| O=C1Nc2ccc(Cl)cc2/C1=C\c1ccc(C(=O)N/N=C/c2cccc(O)c2O)cc1 | 109 |
| O=C1Nc2ccc(Cl)cc2/C1=C\c1ccc(C(=O)N/N=C/c2cccc(O)c2)cc1 | 102 |
| O=C1Nc2ccc(Cl)cc2/C1=C\c1ccc(C(=O)N/N=C/c2ccc(O)cc2)cc1 | 84.8 |
| O=C1Nc2ccc(Cl)cc2/C1=C\c1ccc(C(=O)N/N=C/c2ccccc2O)cc1 | 120 |
| COc1ccc(/C=N/NC(=O)c2ccc(/C=C3/C(=O)Nc4ccc(Cl)cc43)cc2)cc1 | 144 |
| O=C1Nc2ccc(Cl)cc2/C1=C\c1ccc(C(=O)N/N=C/c2ccc(Cl)cc2)cc1 | 111 |
| C/C(=N\NC(=O)c1ccc(/C=C2/C(=O)Nc3ccc(Cl)cc32)cc1)c1ccccc1O | 71.8 |
| COc1ccc(/C=N/NC(=O)c2ccc(/C=C3/C(=O)Nc4ccc(Cl)cc43)cc2)c(O)c1 | 145 |
| COc1ccc(O)c(/C=N/NC(=O)c2ccc(/C=C3/C(=O)Nc4ccc(Cl)cc43)cc2)c1 | 82 |
| O=C1Nc2ccc(Cl)cc2/C1=C\c1ccc(C(=O)N/N=C/c2ccc([N+](=O)[O-])cc2)cc1 | 92.4 |
| O=C1Nc2ccc(Cl)cc2/C1=C\c1ccc(C(=O)N/N=C/c2cccc([N+](=O)[O-])c2)cc1 | 148 |
| CC(=O)NO [ACETOHYDROXAMIC ACID] | 42 |
